Data published in ChEMBL document CHEMBL1143190, “Synthesis and structure-activity relationships of soluble 8-substituted 4-(2-chlorophenyl)-9-hydroxypyrrolo[3,4-c]carbazole-1,3(2H,6H)-diones as inhibitors of the Wee1 and Chk1 checkpoint kinases” (Bioorg Med Chem Lett, 2008).

Tests used:
[1] = physchem; details: buffer
Description: Aqueous solubility in water

[2] = target: Cyclin-dependent kinase 1 (Homo sapiens, UniProt P06493); type: cell-based; details: ht-29
Description: Inhibition of human Cdc2 kinase PY15 phosphorylation in HT29 cells by Western blot

[3] = target: Wee1-like protein kinase (Homo sapiens, UniProt P30291)
[4] = physchem
Description: Dissociation constant, pKa of the compound

[5] = test system: HT-29; test: cells; type: cell-based; details: Homo sapiens
Description: Inhibition of human Cdc2/cyclin B-mediated histone H1 kinase phosphorylation in HT29 cells

[6] = test system: HT-29; test: cells; type: functional, cell-based; details: Homo sapiens, HT-29, 72 h
Description: Cytotoxicity against human HT29 cells after 72 hrs

[7] = target: T1, Serine/threonine-protein kinase Chk1 (Homo sapiens, UniProt O14757)
T1 sequence (O14757 whole entry): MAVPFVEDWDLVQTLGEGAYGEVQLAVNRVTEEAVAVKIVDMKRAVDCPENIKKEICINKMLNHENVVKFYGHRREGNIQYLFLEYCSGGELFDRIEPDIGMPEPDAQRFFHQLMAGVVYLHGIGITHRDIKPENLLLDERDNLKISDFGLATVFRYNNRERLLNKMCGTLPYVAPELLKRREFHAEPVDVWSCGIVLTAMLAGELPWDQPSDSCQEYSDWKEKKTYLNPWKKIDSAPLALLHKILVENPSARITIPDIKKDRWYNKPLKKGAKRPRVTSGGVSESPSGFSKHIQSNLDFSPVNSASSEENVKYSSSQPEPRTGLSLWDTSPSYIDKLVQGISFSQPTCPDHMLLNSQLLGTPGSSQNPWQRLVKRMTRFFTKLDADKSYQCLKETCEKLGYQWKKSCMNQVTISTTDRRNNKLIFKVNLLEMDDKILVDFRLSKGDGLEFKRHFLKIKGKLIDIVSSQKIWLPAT

Sequence of Cyclin-dependent kinase 1 (P06493 whole entry): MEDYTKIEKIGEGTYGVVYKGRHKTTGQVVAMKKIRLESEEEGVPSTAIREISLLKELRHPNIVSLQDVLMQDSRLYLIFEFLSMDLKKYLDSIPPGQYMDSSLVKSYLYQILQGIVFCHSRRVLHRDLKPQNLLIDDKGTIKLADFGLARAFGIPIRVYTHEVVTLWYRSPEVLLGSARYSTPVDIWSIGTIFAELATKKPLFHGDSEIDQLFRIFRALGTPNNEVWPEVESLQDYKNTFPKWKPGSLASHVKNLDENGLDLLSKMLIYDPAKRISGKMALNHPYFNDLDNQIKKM
Sequence of Wee1-like protein kinase (P30291 whole entry): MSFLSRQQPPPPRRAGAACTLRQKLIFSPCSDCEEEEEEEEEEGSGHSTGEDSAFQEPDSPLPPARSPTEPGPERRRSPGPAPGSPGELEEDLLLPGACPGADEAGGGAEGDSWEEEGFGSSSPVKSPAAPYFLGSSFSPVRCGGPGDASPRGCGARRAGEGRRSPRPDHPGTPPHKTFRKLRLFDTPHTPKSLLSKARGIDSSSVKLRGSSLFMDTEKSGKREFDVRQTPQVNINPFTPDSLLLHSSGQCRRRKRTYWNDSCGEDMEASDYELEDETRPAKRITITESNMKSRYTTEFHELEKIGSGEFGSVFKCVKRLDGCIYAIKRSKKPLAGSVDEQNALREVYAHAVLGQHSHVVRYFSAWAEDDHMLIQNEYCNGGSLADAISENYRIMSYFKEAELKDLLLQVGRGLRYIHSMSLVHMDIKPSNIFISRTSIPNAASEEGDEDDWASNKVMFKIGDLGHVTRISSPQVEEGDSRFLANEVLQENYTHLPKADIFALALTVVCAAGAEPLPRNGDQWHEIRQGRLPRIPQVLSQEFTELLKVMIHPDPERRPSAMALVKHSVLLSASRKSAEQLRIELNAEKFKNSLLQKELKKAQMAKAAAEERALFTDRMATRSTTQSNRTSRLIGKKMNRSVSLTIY

solubility [1] [µg/mL] | IC50 [2] [nM] | IC50 [3] [nM] | pKa [4] | IC50 [5] [nM] | IC50 [6] [nM] | IC50 [7] [nM] | SMILES
 | 30 |  | 10.5 | 230 | 310 |  | Cn1c2cc(OCCCN3CCCC3)c(O)cc2c2c3c(c(-c4ccccc4Cl)cc21)C(=O)NC3=O
 |  | 160 | 10.5 |  |  |  | Cn1c2cc(S(=O)(=O)CCCN3CCCC3)c(O)cc2c2c3c(c(-c4ccccc4Cl)cc21)C(=O)NC3=O
 | 200 | 50 | 10.5 | 780 |  |  | O=C1NC(=O)c2c1c(-c1ccccc1Cl)cc1[nH]c3cc(CCCCN4CCCC4)c(O)cc3c21
 |  | 35 | 10.5 |  |  |  | O=C1NC(=O)c2c1c(-c1ccccc1Cl)cc1[nH]c3cc(OCCCN4CCCC4)c(O)cc3c21
 |  | 36 | 10.5 |  |  |  | Cn1c2cc(CCCCN3CCCC3)c(O)cc2c2c3c(c(-c4ccccc4Cl)cc21)C(=O)NC3=O
 |  | 24 | 10.5 |  |  |  | O=C1NC(=O)c2c1c(-c1ccccc1Cl)cc1c2c2cc(O)c(CCCCN3CCCC3)cc2n1CCO
 |  | 33 | 10.5 |  |  | 7 | Cn1c2cc([S+]([O-])CCCN3CCCC3)c(O)cc2c2c3c(c(-c4ccccc4Cl)cc21)C(=O)NC3=O (configuration not stated)
 |  | 20 | 10.5 |  |  |  | Cn1c2cc(SCCCN3CCCC3)c(O)cc2c2c3c(c(-c4ccccc4Cl)cc21)C(=O)NC3=O
 | 30 | 24 | 10.5 | 860 |  |  | O=C1NC(=O)c2c1c(-c1ccccc1Cl)cc1c2c2cc(O)c(OCCCN3CCCC3)cc2n1CCO
 |  |  | 10.5 |  |  |  | Cn1c2cc(C(=O)NCCN3CCCC3)c(O)cc2c2c3c(c(-c4ccccc4Cl)cc21)C(=O)NC3=O

More lines, now with the values behind:

SMILES | solubility [1] [µg/mL] | IC50 [2] [nM] | IC50 [3] [nM] | pKa [4] | IC50 [5] [nM] | IC50 [6] [nM] | IC50 [7] [nM]
CN(C)CCCOc1cc2c(cc1O)c1c3c(c(-c4ccccc4Cl)cc1n2C)C(=O)NC3=O.Cl | 2200 |  |  |  |  |  | 
CN(C)CCCOc1cc2c(cc1O)c1c3c(c(-c4ccccc4Cl)cc1n2CCO)C(=O)NC3=O |  | 250 | 18 | 9.5 | 750 |  | 
O=C1NC(=O)c2c1c(-c1ccccc1Cl)cc1c2c2cc(O)ccc2n1CCCO | < 3 | 250 |  |  |  |  | 
Cn1c2cc(OCCCN3CCOCC3)c(O)cc2c2c3c(c(-c4ccccc4Cl)cc21)C(=O)NC3=O |  |  | 57 | 7.8 |  |  | 
Cn1c2cc(CCCCN3CCOCC3)c(O)cc2c2c3c(c(-c4ccccc4Cl)cc21)C(=O)NC3=O |  |  | 30 | 7.8 |  |  | 
CN(C)CCCOc1cc2[nH]c3cc(-c4ccccc4Cl)c4c(c3c2cc1O)C(=O)NC4=O |  |  | 26 | 9.5 |  |  | 
CN(C)CCCCc1cc2c(cc1O)c1c3c(c(-c4ccccc4Cl)cc1n2C)C(=O)NC3=O |  |  | 34 | 9.5 |  |  | 
O=C1NC(=O)c2c1c(-c1ccccc1Cl)cc1[nH]c3cc(CCCCN4CCOCC4)c(O)cc3c21 |  | 250 | 37 | 7.8 | 1230 |  | 
CN(C)CCCCc1cc2[nH]c3cc(-c4ccccc4Cl)c4c(c3c2cc1O)C(=O)NC4=O |  | 250 | 49 | 9.5 | 880 |  | 
CN(C)CCCOc1cc2c(cc1O)c1c3c(c(-c4ccccc4Cl)cc1n2C)C(=O)NC3=O |  | 10 |  | 9.5 |  | 230 | 
O=C1NC(=O)c2c1c(-c1ccccc1Cl)cc1c2c2cc(O)c(CCCCN3CCOCC3)cc2n1CCO |  |  | 19 | 7.8 |  |  | 
O=C1NC(=O)c2c1c(-c1ccccc1Cl)cc1c2c2cc(O)c(OCCCN3CCOCC3)cc2n1CCO |  | 250 | 15 | 7.8 | 530 |  | 
O=C1NC(=O)c2c1c(-c1ccccc1Cl)cc1[nH]c3cc(OCCCN4CCOCC4)c(O)cc3c21 |  |  | 26 | 7.8 |  |  | 
Cn1c2cc(S(=O)(=O)NCCN3CCCC3)c(O)cc2c2c3c(c(-c4ccccc4Cl)cc21)C(=O)NC3=O |  |  | 46 | 10.5 |  |  | 
